US11407768B2, “AMPK activators” (Kallyope, Inc., priority 2020, dated 2022)

Each molecule was assayed against Recombinant AMPK α1/β1/γ1 complex (Homo sapiens (Human), UniProt Q13131+Q9Y478) (assay: In vitro pAMPK1 kinase activation assay (ADP-Glo, SAMS peptide)). Conditions: AMPK α1/β1/γ1 pre-activated with CAMKK2; 12-point curve; 15 min compound incubation.
Format: biochemical
Experimental: Compound effect on AMPK enzyme activation was determined in a cell-free format with a 12-point concentration curve. The ADP-Glo detection system was used to determine phosphorylation of a SAMS peptide substrate. Recombinant AMPK α1/β1/γ1 complex was pre-activated by phosphorylation with CAMKK2 followed by incubated with compound for 15 minutes prior to the SAMS phosphorylation reaction. Activity curves and EC50 values were fitted by interpolation to an ATP:ADP standard curve as indicated by the ADP-Glo manufacturer using Prism software.

Chain of Recombinant AMPK α1/β1/γ1 complex (Q13131 whole entry): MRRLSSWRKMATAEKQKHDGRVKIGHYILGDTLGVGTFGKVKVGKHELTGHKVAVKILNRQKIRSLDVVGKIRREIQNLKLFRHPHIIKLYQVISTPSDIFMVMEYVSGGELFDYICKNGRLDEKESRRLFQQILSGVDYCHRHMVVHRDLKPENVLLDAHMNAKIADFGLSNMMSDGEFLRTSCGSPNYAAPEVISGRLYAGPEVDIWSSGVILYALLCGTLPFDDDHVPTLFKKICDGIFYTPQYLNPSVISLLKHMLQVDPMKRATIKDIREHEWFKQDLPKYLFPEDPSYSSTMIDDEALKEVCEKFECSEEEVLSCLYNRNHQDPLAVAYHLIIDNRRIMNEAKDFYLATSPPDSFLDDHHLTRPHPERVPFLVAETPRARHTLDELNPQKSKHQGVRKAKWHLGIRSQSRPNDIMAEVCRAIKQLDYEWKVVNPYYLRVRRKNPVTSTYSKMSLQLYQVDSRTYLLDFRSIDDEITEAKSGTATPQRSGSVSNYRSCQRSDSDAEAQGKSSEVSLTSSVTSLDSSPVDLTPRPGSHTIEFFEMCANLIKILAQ
Chain of Recombinant AMPK α1/β1/γ1 complex (Q9Y478 whole entry): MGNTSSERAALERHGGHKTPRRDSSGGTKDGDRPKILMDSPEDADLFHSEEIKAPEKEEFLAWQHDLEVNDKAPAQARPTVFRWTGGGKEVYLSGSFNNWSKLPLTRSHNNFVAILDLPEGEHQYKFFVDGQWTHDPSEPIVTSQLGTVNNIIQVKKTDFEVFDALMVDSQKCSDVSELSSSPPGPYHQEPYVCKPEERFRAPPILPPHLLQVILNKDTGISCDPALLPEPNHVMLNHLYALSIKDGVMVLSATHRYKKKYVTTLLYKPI
Chain of Recombinant AMPK α1/β1/γ1 complex (P54619 whole entry partner): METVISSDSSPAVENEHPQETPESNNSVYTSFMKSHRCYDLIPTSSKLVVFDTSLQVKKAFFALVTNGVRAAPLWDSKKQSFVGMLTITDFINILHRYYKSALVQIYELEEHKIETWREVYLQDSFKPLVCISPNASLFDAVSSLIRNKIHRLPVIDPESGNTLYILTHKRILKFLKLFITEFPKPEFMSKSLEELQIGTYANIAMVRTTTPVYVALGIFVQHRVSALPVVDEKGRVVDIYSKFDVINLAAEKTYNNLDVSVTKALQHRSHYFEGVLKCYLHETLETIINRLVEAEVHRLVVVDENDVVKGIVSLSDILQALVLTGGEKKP

EC50 [nM] | SMILES
1.3 | CN(CCOCCO)Cc1ccc(-c2ccc(-c3cc4nc(O[C@@H]5CO[C@H]6[C@@H]5OC[C@H]6O)[nH]c4cc3Cl)cc2)cc1 [Compound 62, (3R,3aR,6R,6aR)-6-((6-chloro-5-(4′-(((2-(2-hydroxyethoxy)ethyl)(methyl)amino)methyl)-[1,1′-biphenyl]-4-yl)-1H-benzoldlimidazol-2-yl)oxy)hexahydrofuro[3,2-b]furan-3-ol]
0.63 | O=C(O)C(O)CNCc1ccc(-c2ccc(-c3nc4nc(O[C@@H]5CO[C@H]6[C@@H]5OC[C@H]6O)[nH]c4cc3Cl)cc2)cc1 (stereo partly drawn) [Compound 22, 3-(((4′-(6-chloro-2-(((3R,3aR,6R,6aR)-6-hydroxyhexahydrofuro[3,2-b]furan-3-yl)oxy)-1H-imidazo[4,5-b]pyridin-5-yl)-[1,1′-biphenyl]-4-yl)methyl)amino)-2-hydroxypropanoic acid]
0.72 | OCCN1CCN(Cc2ccc(-c3ccc(-c4nc5nc(O[C@@H]6CO[C@H]7[C@@H]6OC[C@H]7O)[nH]c5cc4Cl)cc3)cc2)CC1 [Compound 51, (3R,3aR,6R,6aR)-6-((6-chloro-5-(4′-((4-(2-hydroxyethyl)piperazin-1-yl)methyl)-[1,1′-biphenyl]-4-yl)-1H-imidazo[4,5-b]pyridin-2-yl)oxy)hexahydrofuro[3,2-b]furan-3-ol]
1.04 | O[C@@H]1CCN(Cc2ccc(-c3ccc(-c4cc5nc(O[C@@H]6CO[C@H]7[C@@H]6OC[C@H]7O)[nH]c5cc4Cl)cc3)cc2)C1 [Compound 59, (R)-1-((4′-(6-chloro-2-(((3R,3aR,6R,6aR)-6-hydroxyhexahydrofuro[3,2-b]furan-3-yl)oxy)-1H-benzo[d]imidazol-5-yl)-[1,1′-biphenyl]-4-yl)methyl)pyrrolidin-3-ol]
1.84 | O=S(=O)(O)c1ccc(-c2ccc(-c3nc4nc(O[C@@H]5CO[C@H]6[C@@H]5OC[C@H]6O)[nH]c4cc3Cl)cc2)cc1 [Compound 69, 4′-(6-chloro-2-(((3R,3aR,6R,6aR)-6-hydroxyhexahydrofuro[3,2-b]furan-3-yl)oxy)-1H-imidazo[4,5-b]pyridin-5-yl)-[1,1′-biphenyl]-4-sulfonic acid]
0.09 | O=S(=O)(NC[C@H](O)[C@@H](O)[C@H](O)[C@H](O)CO)c1ccc(-c2ccc(-c3nc4nc(O[C@@H]5CO[C@H]6[C@@H]5OC[C@H]6O)[nH]c4cc3Cl)cc2)cc1 [Compound 3, 4′-(6-chloro-2-(((3R,3aR,6R,6aR)-6-hydroxyhexahydrofuro[3,2-b]furan-3-yl)oxy)-1H-imidazo [4,5-b]pyridin-5-yl)-N-((2S,3R,4R,5R)-2,3,4,5,6-pentahydroxyhexyl)-[1,1′-biphenyl]-4-sulfonamide]
0.93 | NCC1CN(Cc2ccc(-c3ccc(-c4cc5nc(O[C@@H]6CO[C@H]7[C@@H]6OC[C@H]7O)[nH]c5cc4Cl)cc3)cc2)C1 [Compound 67, (3R,3aR,6R,6aR)-6-((5-(4′-((3-(aminomethyl)azetidin-1-yl)methyl)-[1,1′-biphenyl]-4-yl)-6-chloro-1H-benzo[d]imidazol-2-yl)oxy)hexahydrofuro[3,2-b]furan-3-ol]
0.8 | OCC1(CO)CN(Cc2ccc(-c3ccc(-c4cc5nc(O[C@@H]6CO[C@H]7[C@@H]6OC[C@H]7O)[nH]c5cc4Cl)cc3)cc2)C1 [Compound 66, (1-((4′-(6-chloro-2-(((3R,3aR,6R,6aR)-6-hydroxyhexahydrofuro[3,2-b]furan-3-yl)oxy)-1H-benzo[d]imidazol-5-yl)-[1,1′-biphenyl]-4-yl)methyl)azetidine-3,3-diyl)dimethanol]
1.36 | O[C@@H]1CO[C@H]2[C@@H]1OC[C@H]2Oc1nc2cc(-c3ccc(-c4ccc(CN5C[C@@H](O)[C@@H](O)C5)cc4)cc3)c(Cl)cc2[nH]1 [Compound 61, (3S,4R)-1-((4′-(6-chloro-2-(((3R,3aR,6R,6aR)-6-hydroxyhexahydrofuro[3,2-b]furan-3-yl)oxy)-1H-benzo[d]imidazol-5-yl)-[1,1′-biphenyl]-4-yl)methyl)pyrrolidine-3,4-diol]
0.15 | OCCOCCNCc1ccc(-c2ccc(-c3cc4nc(O[C@@H]5CO[C@H]6[C@@H]5OC[C@H]6O)[nH]c4cc3Cl)cc2)c(O)c1 [Compound 74]
152 | O=P(O)(O)c1ccc(-c2ccc(-c3nc4nc(O[C@H]5CO[C@H](CO)[C@@H](O)C5)[nH]c4cc3Cl)cc2)cc1 [Compound 12, (4′-(6-chloro-2-(((3R,5S,6R)-5-hydroxy-6-(hydroxymethyl)tetrahydro-2H-pyran-3-yl)oxy)-1H-imidazo[4,5b]pyridin-5-yl)-[1,1′-biphenyl]-4-yl)phosphonic acid]
3.6 | O=C(CCCNCc1ccc(-c2ccc(-c3cc4nc(O[C@@H]5CO[C@H]6[C@@H]5OC[C@H]6O)[nH]c4cc3Cl)cc2)cc1)NCCO [Compound 37, 4-(((4′-(6-chloro-2-(((3R,3aR,6R,6aR)-6-hydroxyhexahydrofuro[3,2-b]furan-3-yl)oxy)-1H-benzo[d]imidazol-5-yl)-[1,1′-biphenyl]-4-yl)methyl)amino)-N-(2-hydroxyethyl)butanamide]
0.37 | O=C(NCCOCCO)c1ccc(-c2ccc(-c3cc4nc(O[C@@H]5CO[C@H]6[C@@H]5OC[C@H]6O)[nH]c4cc3Cl)cc2)c(O)c1 [Compound 75, 4′-(6-chloro-2-(((3R,3aR,6R,6aR)-6-hydroxyhexahydrofuro[3,2-b]furan-3-yl)oxy)-1H-benzo[d]imidazol-5-yl)-2-hydroxy-N-(2-(2-hydroxyethoxy)ethyl)-[1,1′-biphenyl]-4-carboxamide]
0.23 | OCC(CO)(CO)NCc1ccc(-c2ccc(-c3nc4nc(O[C@@H]5CO[C@H]6[C@@H]5OC[C@H]6O)[nH]c4cc3Cl)cc2)cc1 [Compound 53, 2-(((4′-(6-chloro-2-(((3R,3aR,6R,6aR)-6-hydroxyhexahydrofuro[3,2-b]furan-3-yl)oxy)-1H-imidazo[4,5-b]pyridin-5-yl)-[1,1′-biphenyl]-4-yl)methyl)amino)-2-(hydroxymethyl)propane-1,3-diol]
> 10000 | O=P(O)(O)c1ccc(-c2ccc(-c3nc4nc(O[C@H]5CO[C@H](CO)[C@H]5O)[nH]c4cc3Cl)cc2)cc1 [Compound 45, (4′-(6-chloro-2-(((3S,4R,5R)-4-hydroxy-5-(hydroxymethyl)tetrahydrofuran-3-yl)oxy)-1H-imidazo[4,5-b]pyridin-5-yl)-[1,1′-biphenyl]-4-yl)phosphonic acid]
0.86 | O=C(NCCS(=O)(=O)O)c1ccc(-c2ccc(-c3nc4nc(O[C@@H]5CO[C@H]6[C@@H]5OC[C@H]6O)[nH]c4cc3Cl)cc2)cc1 [Compound 5, 2-(4′-(6-chloro-2-(((3R,3aR,6R,6aR)-6-hydroxyhexahydrofuro[3,2-b]furan-3-yl)oxy)-1H-imidazo[4,5-b]pyridin-5-yl)-[1,1′-biphenyl]-4-ylcarboxamido)ethanesulfonic acid]
1.4 | O[C@@H]1CO[C@H]2[C@@H]1OC[C@H]2Oc1nc2cc(-c3ccc(-c4ccc(CN5C[C@H](O)[C@@H](O)C5)cc4)cc3)c(Cl)cc2[nH]1 [Compound 64]
1.76 | O[C@@H]1CO[C@H]2[C@@H]1OC[C@H]2Oc1nc2cc(-c3ccc(-c4ccc(CN5CCNCC5)cc4)cc3)c(Cl)cc2[nH]1 [Compound 49, (3R,3aR,6R,6aR)-6-((6-chloro-5-(4′-(piperazin-1-ylmethyl)-[1,1′-biphenyl]-4-yl)-1H-benzo[d]imidazol-2-yl)oxy)hexahydrofuro[3,2-b]furan-3-ol]
